This note sets out measurements from article PMC9046208, “Foldamers reveal and validate therapeutic targets associated with toxic α-synuclein self-assembly” (Nature Communications, 2022).

In assay [1] the target is T1, αS aggregation (Homo sapiens, UniProt P37840).
T1 construct: made in house; host or cells: Escherichia coli BL21(DE3), periplasm
The assay is described as follows: ThT aggregation kinetic assay, de novo, WT αS. In kind it is biochemical. As to conditions: 100 μM analog, 100 μM αS. The procedure: The aggregation kinetics of αS was monitored using ThT fluorescence assay (λex = 450 nm and λem = 485 nm). To study the aggregation kinetics of αS, the ThT dye at a final concentration of 50 μM was added to 100 μM αS solution in the aggregation buffer (1 x PBS buffer) with and without various concentrations of SK-129 in a Costar black 96–well plate (Corning Inc., Kennebunk, ME). The small molecules were dissolved in dimethyl sulfoxide (DMSO; final DMSO concentration = 0.5%, v/v). The final volume in each well was 140 μL. The plate was incubated at 37 °C with 16 min shaking (434 rpm) and 44 min without shaking in an Infinite M200PRO plate reader (Tecan, Männedorf, Switzerland) and fluorescence was recorded after every hour. We used two methods to quantify the effect of molecules on the aggregation of αS; either we have reported the t50 (time required to reach 50% fluorescence of ThT), which was extracted by fitting the ThT curve as a sigmoidal fit or the absolute ThT fluorescence intensity was reported. […] In the second method, we determined the final ThT fluorescence intensity for the aggregation of αS/Aβ42(with or without ligands) as an average of three separate experiments. […]
The aggregation kinetics of WT αS and αS variants were monitored and was carried out with a slightly modified protocol. […] The aggregation of proteins was monitored at the indicated times (See the main manuscript). […]

Assay [2] deals with SH-SY5Y cells. The assay is described as follows: MTT cytotoxicity assay, SH-SY5Y cells. Type of assay: cell-based. To be noted: 24 h, αS alone 48 ± 3%. The procedure: An MTT assay was conducted to assess the effect of SK-129 on the cytotoxicity mediated by αS aggregation in SH-SY5Y cells. The cells were cultured in phenol red-free Dulbeco’s Modified Eagle Medium (DMEM) with 10% Fetal Bovine Serum (FBS) and 1% penicillin-streptomycin (Pen/strep) at 37 °C and 5% CO2(g). The cells were plated in a clear, flat bottom 96-well cell culture plate (Costar, Kennebunk, ME) using a density of 10,000 cells per well with more than 90% cell viability. After incubating for 24 h, the media was aspirated, and 100 µL of fresh OptiMEM (Fisher Scientific, Pittsburgh, PA) was added, […] of various ligands at various stoichiometric ratios. The samples were then incubated for an additional 24 h at 37 °C and 5% CO2(g), followed by the addition of MTT dye (10 µL per well, prepared in 1x PBS buffer, 5 mg/mL). The plates were covered in aluminum foil and incubated again for 3 h. The solution in each well was carefully removed without disturbing the formazan crystals and replaced with 100 µL of DMSO to dissolve the formazan crystals. Subsequently, the plate was shaken in a 96-well plate reader for 5 min before measuring the absorbance at 570 nm. The cell viability was reported on a scale of 100%, using the control wells with regular media as 100% viability and the wells with 10% DMSO (v/v) as 0% viability.
Background: Tetrazolium dyes change colour on reduction, which living cells bring about.

For assay [3], the target named is T2, αS oligomers (Homo sapiens, UniProt P37840).
T2 construct: made in house; host or cells: Escherichia coli BL21(DE3), periplasm
The assay can be described thus: Gel shift assay of αS supernatant (oligomers). Type of assay: biochemical. As to conditions: 70 µM αS, 0.1, 0.2, 0.5 mol eq. ligand, 7 days. The procedure: Supplementary Fig. 8. Gel-shift images of αS (70 µM) incubated in the absence (lane 2) and presence of SK-129 (a) and EGCG (b) at sub-stoichiometric ratios (0.1, 0.2, 0.5 mol eq.) for 7 days at 370C with constant shaking. The solutions of αS in the absence and presence of ligands were centrifuged and the supernatant was used for the gel shift assay. The arrows indicate the formation of various αS structures. The gel shift assay of the supernatant of the αS aggregated […]
fibers. Most of the αS was found in the supernatant as a mo nomer and a dimer in the presence of […]
their formation. The gel experiments were conducted at least two times to confirm the reproducibility of the data.
(1 picture or pasted object on this page, not shown here)

For assay [4], the target named is T3, αS2 seed-catalyzed aggregation (Homo sapiens, UniProt P37840, DEL15-23).
T3 construct: made in house
The assay can be described thus: Seed-catalyzed ThT aggregation assay (10% WT αS seeds), αS2. Type of assay: biochemical. As to conditions: αS2, equimolar ratio. How it is done: Seed-catalyzed αS aggregation assay was performed similarly to a previously described protocol. Briefly, 100 μM monomeric WT αS solution (200 μL, in 1x PBS buffer) was placed into a ThermoMixer (Eppendorf, Hamberg, Germany) and shook for five days at a rate of […] and 37 °C. The solution was sonicated for 10 min and used as αS seeds. The seed-catalyzed aggregation of WT αS/ αS variants was performed by adding αS seeds (10% seeds, αS in monomeric concentration, v/v) into 140 μL of fresh 100 μM WT αS/ αS variants solution and aggregation was started with constant shaking at a rate of […] and 37 °C. The aggregation of proteins was monitored at the indicated times (See the main manuscript) using the above-mentioned method.
The ThT aggregation assay for each protein (WT αS and αS variants) in the presence of SK-129 was carried out the above-mentioned method. SK-129 (from 10 mM stock solution in DMSO) was added at an equimolar ratio (1% DMSO, v/v) to the proteins at the start of the aggregation experiment. The concentration of DMSO was kept constant (1%, v/v) in protein (WT αS and αS variants), control, and protein+molecule solutions. The kinetic profiles of protein aggregation were processed using OriginPro software (Version 9.1). Kinetic curves were fit using a built-in sigmoidal fit in the OriginLab.

Consider `COC(=O)c1cc(OCC(=O)O)c2cccc(NC(=O)c3cc(OC(C)C)c4cccc(NC(=O)c5cc(OCC(=O)O)c6cccc(NC(=O)c7cc(OC(C)C)c8cccc([N+](=O)[O-])c8n7)c6n5)c4n3)c2n1` [SK-129], for which the “antagonist activity against αS aggregation among analogs” value in assay [1] was “most potent antagonist”. Also, the “viability of SH-SY5Y cells” value in assay [2] (10 μM αS aggregated with SK-129, 1:0.1 (αS:SK-129)) came to 91 ± 4%; in assay [2] (10 μM αS aggregated with SK-129, 1:1 (αS:SK-129)) it was 97 ± 4%. Moreover, the “αS species in gel shift assay” value in assay [3] is “potently inhibits αS aggregation”. For the same molecule, the “effect on seed-catalyzed aggregation” value in assay [4] was “wholly suppressed”.
